Target: T1, chimeric human H3 receptor (Homo sapiens, UniProt Q9Y5N1)
T1 construct: rat Galpha-i2 (Gnai2, rat); made in house; host or cells: Sf9 insect cells (baculovirus); P2 membranes
Assay: Chimeric human H3 receptor screening GTP binding assay (inhibition of histamine-stimulated GTP-gamma35S binding, Example 8)
Format: biochemical
Settings: 1 h; assay of Example 8; symbol "!" in column headed Ki; read-out: percent inhibition of agonist-induced GTP-gammaS binding to H3
In short: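 Compound tested at 4 μM against 1 μM histamine stimulation; 125 pM GTP-gamma35S binding measured by filtration and scintillation after 60 min at room temperature. Membranes from Sf9 cells expressing chimeric human H3 plus G-protein subunits, in Tris pH 7.4/NaCl/MgCl2/GDP buffer; values are % inhibition after nonspecific subtraction.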

T1 sequence (Q9Y5N1 with tags, fused parts or gaps): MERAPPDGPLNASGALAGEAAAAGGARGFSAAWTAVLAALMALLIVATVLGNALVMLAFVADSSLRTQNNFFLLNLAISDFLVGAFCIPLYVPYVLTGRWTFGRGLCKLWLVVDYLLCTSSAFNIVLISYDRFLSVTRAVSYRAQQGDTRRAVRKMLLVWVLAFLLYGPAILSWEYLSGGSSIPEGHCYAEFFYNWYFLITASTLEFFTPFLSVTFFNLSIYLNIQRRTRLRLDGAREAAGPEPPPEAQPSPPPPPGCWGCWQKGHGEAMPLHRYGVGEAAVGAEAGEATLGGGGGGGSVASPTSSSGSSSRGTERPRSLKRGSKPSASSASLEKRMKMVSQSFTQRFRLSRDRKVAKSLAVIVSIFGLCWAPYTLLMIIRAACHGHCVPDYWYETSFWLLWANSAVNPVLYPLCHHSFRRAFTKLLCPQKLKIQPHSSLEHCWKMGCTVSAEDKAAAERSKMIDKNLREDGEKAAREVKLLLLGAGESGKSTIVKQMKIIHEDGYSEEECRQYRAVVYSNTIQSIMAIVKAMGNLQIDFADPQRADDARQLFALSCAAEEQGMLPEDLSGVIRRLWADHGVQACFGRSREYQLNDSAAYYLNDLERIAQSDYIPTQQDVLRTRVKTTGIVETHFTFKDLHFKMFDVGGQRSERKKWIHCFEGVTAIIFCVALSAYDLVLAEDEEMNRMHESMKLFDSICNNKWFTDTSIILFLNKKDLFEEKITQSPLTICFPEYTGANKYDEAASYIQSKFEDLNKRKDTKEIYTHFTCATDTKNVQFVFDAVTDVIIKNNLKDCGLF

Row | inhibition at 4 µM [%] | SMILES
1 | ≥ 90 | Cc1ccc(C)c(C(=O)N2CCc3cnc(N4CCN(C5CCC5)CC4)nc3CC2)c1 [Compound 227, 2-(4-cyclobutylpiperazin-1-yl)-7-(2,5-dimethylbenzoyl)-6,7,8,9-tetrahydro-5H-pyrimido[4,5-d]azepine]
2 | ≥ 90 | COCCOCC(=O)N1CCc2cnc(N3CCN(C4CCC4)CC3)nc2CC1 [Compound 228, 2-(4-cyclobutylpiperazin-1-yl)-7-[(2-methoxyethoxy)acetyl]-6,7,8,9-tetrahydro-5H-pyrimido[4,5-d]azepine]
3 | ≥ 90 | c1ccc(CN2CCc3cnc(N4CCN(C5CCC5)CC4)nc3CC2)cc1 [Compound 229, 7-benzyl-2-(4-cyclobutylpiperazin-1-yl)-6,7,8,9-tetrahydro-5H-pyrimido[4,5-d]azepine]
4 | ≥ 90 | Fc1ccccc1CN1CCc2cnc(N3CCN(C4CCC4)CC3)nc2CC1 [Compound 230, 2-(4-cyclobutylpiperazin-1-yl)-7-(2-fluorobenzyl)-6,7,8,9-tetrahydro-5H-pyrimido[4,5-d]azepine]
5 | ≥ 90 | Fc1cccc(CN2CCc3cnc(N4CCN(C5CCC5)CC4)nc3CC2)c1 [Compound 231, 2-(4-cyclobutylpiperazin-1-yl)-7-(3-fluorobenzyl)-6,7,8,9-tetrahydro-5H-pyrimido[4,5-d]azepine]
6 | ≥ 90 | Fc1ccc(CN2CCc3cnc(N4CCN(C5CCC5)CC4)nc3CC2)cc1 [Compound 232, 2-(4-cyclobutylpiperazin-1-yl)-7-(4-fluorobenzyl)-6,7,8,9-tetrahydro-5H-pyrimido[4,5-d]azepine]
7 | ≥ 90 | Cc1cccc(CN2CCc3cnc(N4CCN(C5CCC5)CC4)nc3CC2)c1 [Compound 233, 2-(4-cyclobutylpiperazin-1-yl)-7-(3-methylbenzyl)-6,7,8,9-tetrahydro-5H-pyrimido[4,5-d]azepine]
8 | ≥ 90 | Cc1ccc(CN2CCc3cnc(N4CCN(C5CCC5)CC4)nc3CC2)cc1 [Compound 234, 2-(4-cyclobutylpiperazin-1-yl)-7-(4-methylbenzyl)-6,7,8,9-tetrahydro-5H-pyrimido[4,5-d]azepine]
9 | ≥ 90 | Cn1ccnc1CN1CCc2cnc(N3CCN(C4CCC4)CC3)nc2CC1 [Compound 235, 2-(4-cyclobutylpiperazin-1-yl)-7-[(1-methyl-1H-imidazol-2-yl)methyl]-6,7,8,9-tetrahydro-5H-pyrimido[4,5-d]azepine]
10 | ≥ 90 | c1ccc2c(CN3CCc4cnc(N5CCN(C6CCC6)CC5)nc4CC3)ccnc2c1 [Compound 236, 2-(4-cyclobutylpiperazin-1-yl)-7-(quinolin-4-ylmethyl)-6,7,8,9-tetrahydro-5H-pyrimido[4,5-d]azepine]
11 | ≥ 90 | c1ccc2ncc(CN3CCc4cnc(N5CCN(C6CCC6)CC5)nc4CC3)cc2c1 [Compound 237, 2-(4-cyclobutylpiperazin-1-yl)-7-(quinolin-3-ylmethyl)-6,7,8,9-tetrahydro-5H-pyrimido[4,5-d]azepine]
12 | ≥ 90 | Cc1cccc(CN2CCc3cnc(N4CCN(C5CCC5)CC4)nc3CC2)n1 [Compound 238, 2-(4-cyclobutylpiperazin-1-yl)-7-[(6-methylpyridin-2-yl)methyl]-6,7,8,9-tetrahydro-5H-pyrimido[4,5-d]azepine]
13 | ≥ 90 | c1cncc(CN2CCc3cnc(N4CCN(C5CCC5)CC4)nc3CC2)c1 [Compound 239, 2-(4-cyclobutylpiperazin-1-yl)-7-(pyridin-3-ylmethyl)-6,7,8,9-tetrahydro-5H-pyrimido[4,5-d]azepine]
14 | ≥ 90 | c1cc(N2CCOCC2)ncc1CN1CCc2cnc(N3CCN(C4CCC4)CC3)nc2CC1 [Compound 240, 2-(4-cyclobutylpiperazin-1-yl)-7-[(6-morpholin-4-ylpyridin-3-yl)methyl]-6,7,8,9-tetrahydro-5H-pyrimido[4,5-d]azepine]
15 | ≥ 90 | Cc1cc(CN2CCc3cnc(N4CCN(C5CCC5)CC4)nc3CC2)n(C)n1 [Compound 241, 2-(4-cyclobutylpiperazin-1-yl)-7-[(1,3-dimethyl-1H-pyrazol-5-yl)methyl]-6,7,8,9-tetrahydro-5H-pyrimido[4,5-d]azepine]
16 | ≥ 90 | COc1ccccc1CN1CCc2cnc(N3CCN(C4CCC4)CC3)nc2CC1 [Compound 242, 2-(4-cyclobutylpiperazin-1-yl)-7-(2-methoxybenzyl)-6,7,8,9-tetrahydro-5H-pyrimido[4,5-d]azepine]
17 | ≥ 90 | COc1ccc(CN2CCc3cnc(N4CCN(C5CCC5)CC4)nc3CC2)c(OC)c1 [Compound 243, 2-(4-cyclobutylpiperazin-1-yl)-7-(2,4-dimethoxybenzyl)-6,7,8,9-tetrahydro-5H-pyrimido[4,5-d]azepine]
18 | ≥ 90 | CC(C)c1ccc(CN2CCc3cnc(N4CCN(C5CCC5)CC4)nc3CC2)cc1 [Compound 244, 2-(4-cyclobutylpiperazin-1-yl)-7-(4-isopropylbenzyl)-6,7,8,9-tetrahydro-5H-pyrimido[4,5-d]azepine]

Row | inhibition at 4 µM [%] | SMILES
19 | ≥ 90 | CCN1CCc2cnc(N3CCN(C4CCC4)CC3)nc2CC1 [Compound 245, 2-(4-cyclobutylpiperazin-1-yl)-7-ethyl-6,7,8,9-tetrahydro-5H-pyrimido[4,5-d]azepine]
20 | ≥ 90 | CC(C)CCN1CCc2cnc(N3CCN(C4CCC4)CC3)nc2CC1 [Compound 246, 2-(4-cyclobutylpiperazin-1-yl)-7-(3-methylbutyl)-6,7,8,9-tetrahydro-5H-pyrimido[4,5-d]azepine]
21 | ≥ 90 | CCCN1CCc2cnc(N3CCN(C4CCC4)CC3)nc2CC1 [Compound 247, 2-(4-cyclobutylpiperazin-1-yl)-7-propyl-6,7,8,9-tetrahydro-5H-pyrimido[4,5-d]azepine]
22 | ≥ 90 | CCCCN1CCc2cnc(N3CCN(C4CCC4)CC3)nc2CC1 [Compound 248, 7-butyl-2-(4-cyclobutylpiperazin-1-yl)-6,7,8,9-tetrahydro-5H-pyrimido[4,5-d]azepine]
23 | ≥ 90 | CCCCCN1CCc2cnc(N3CCN(C4CCC4)CC3)nc2CC1 [Compound 249, 2-(4-cyclobutylpiperazin-1-yl)-7-pentyl-6,7,8,9-tetrahydro-5H-pyrimido[4,5-d]azepine]
24 | ≥ 90 | CCCCCCN1CCc2cnc(N3CCN(C4CCC4)CC3)nc2CC1 [Compound 250, 2-(4-cyclobutylpiperazin-1-yl)-7-hexyl-6,7,8,9-tetrahydro-5H-pyrimido[4,5-d]azepine]
25 | ≥ 90 | CC(C)CN1CCc2cnc(N3CCN(C4CCC4)CC3)nc2CC1 [Compound 251, 2-(4-cyclobutylpiperazin-1-yl)-7-isobutyl-6,7,8,9-tetrahydro-5H-pyrimido[4,5-d]azepine]
26 | ≥ 90 | CCC(C)CN1CCc2cnc(N3CCN(C4CCC4)CC3)nc2CC1 (stereo not drawn) [Compound 252, 2-(4-cyclobutylpiperazin-1-yl)-7-(2-methylbutyl)-6,7,8,9-tetrahydro-5H-pyrimido[4,5-d]azepine]
27 | ≥ 90 | CCC(CC)CN1CCc2cnc(N3CCN(C4CCC4)CC3)nc2CC1 [Compound 253, 2-(4-cyclobutylpiperazin-1-yl)-7-(2-ethylbutyl)-6,7,8,9-tetrahydro-5H-pyrimido[4,5-d]azepine]
28 | ≥ 90 | c1nc(N2CCN(C3CCC3)CC2)nc2c1CCN(CC1CC1)CC2 [Compound 254, 2-(4-cyclobutylpiperazin-1-yl)-7-(cyclopropylmethyl)-6,7,8,9-tetrahydro-5H-pyrimido[4,5-d]azepine]
29 | ≥ 90 | CCCC(C)CN1CCc2cnc(N3CCN(C4CCC4)CC3)nc2CC1 (stereo not drawn) [Compound 255, 2-(4-cyclobutylpiperazin-1-yl)-7-(2-methylpentyl)-6,7,8,9-tetrahydro-5H-pyrimido[4,5-d]azepine]
30 | ≥ 90 | c1nc(N2CCN(C3CCC3)CC2)nc2c1CCN(CC1CCOC1)CC2 (stereo not drawn) [Compound 256, 2-(4-cyclobutylpiperazin-1-yl)-7-(tetrahydrofuran-3-ylmethyl)-6,7,8,9-tetrahydro-5H-pyrimido[4,5-d]azepine]
31 | ≥ 90 | Cc1ccc(CN2CCc3cnc(N4CCN(C5CCC5)CC4)nc3CC2)cc1C [Compound 257, 2-(4-cyclobutylpiperazin-1-yl)-7-(3,4-dimethylbenzyl)-6,7,8,9-tetrahydro-5H-pyrimido[4,5-d]azepine]
32 | ≥ 90 | c1cc2c(cc1CN1CCc3cnc(N4CCN(C5CCC5)CC4)nc3CC1)OCCO2 [Compound 258, 2-(4-cyclobutylpiperazin-1-yl)-7-(2,3-dihydro-1,4-benzodioxin-6-ylmethyl)-6,7,8,9-tetrahydro-5H-pyrimido[4,5-d]azepine]
33 | ≥ 90 | c1ccc2nc(CN3CCc4cnc(N5CCN(C6CCC6)CC5)nc4CC3)ccc2c1 [Compound 259, 2-(4-cyclobutylpiperazin-1-yl)-7-(quinolin-2-ylmethyl)-6,7,8,9-tetrahydro-5H-pyrimido[4,5-d]azepine]
34 | ≥ 90 | COc1cccc(CN2CCc3cnc(N4CCN(C5CCC5)CC4)nc3CC2)c1OC [Compound 260, 2-(4-cyclobutylpiperazin-1-yl)-7-(2,3-dimethoxybenzyl)-6,7,8,9-tetrahydro-5H-pyrimido[4,5-d]azepine]
35 | ≥ 90 | COc1ccc(OC)c(CN2CCc3cnc(N4CCN(C5CCC5)CC4)nc3CC2)c1 [Compound 261, 2-(4-cyclobutylpiperazin-1-yl)-7-(2,5-dimethoxybenzyl)-6,7,8,9-tetrahydro-5H-pyrimido[4,5-d]azepine]
36 | ≥ 90 | CCn1cncc1CN1CCc2cnc(N3CCN(C4CCC4)CC3)nc2CC1 [Compound 262, 2-(4-cyclobutylpiperazin-1-yl)-7-[(1-ethyl-1H-imidazol-5-yl)methyl]-6,7,8,9-tetrahydro-5H-pyrimido[4,5-d]azepine]

— patent US20080051387A1, “TETRAHYDROPYRIDO[3,4-D]PYRIMIDINES AND RELATED ANALOGUES” (priority 2006, published 2008)
